Results taken from paper PMC3209708 (Journal of medicinal chemistry, 2011).
Where two headings read alike, the source gives them in different places.

Assays:
hPCFT [1] = target: T1, hPCFT (Homo sapiens, UniProt Q96NT5); assay: hPCFT transport assays with [3H]MTX in R2/hPCFT4 cells; assay type: cell-based; details: 10 µM competitor, 0.5 µM [3H]MTX, pH 5.5 to pH 7.2, R2/hPCFT4 cells
T1 sequence (Q96NT5 1-459): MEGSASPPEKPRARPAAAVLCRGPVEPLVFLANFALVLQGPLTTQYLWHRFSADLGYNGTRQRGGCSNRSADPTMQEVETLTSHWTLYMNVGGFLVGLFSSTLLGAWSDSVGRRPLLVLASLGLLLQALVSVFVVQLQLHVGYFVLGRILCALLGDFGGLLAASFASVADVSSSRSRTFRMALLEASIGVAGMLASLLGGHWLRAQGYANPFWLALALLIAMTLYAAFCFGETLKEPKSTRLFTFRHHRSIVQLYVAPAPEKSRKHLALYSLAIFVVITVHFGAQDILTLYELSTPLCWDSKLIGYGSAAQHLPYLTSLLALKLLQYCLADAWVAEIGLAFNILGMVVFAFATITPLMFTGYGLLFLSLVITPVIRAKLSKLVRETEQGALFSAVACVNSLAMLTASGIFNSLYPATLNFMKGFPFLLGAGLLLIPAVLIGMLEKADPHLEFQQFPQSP

R2/hPCFT4 cells = assay: Nucleoside/AICA protection from growth inhibition; assay type: cell-based, Chinese hamster; details: adenosine 60 µM, thymidine 10 µM, AICA 320 µM
[2] = system: subcutaneous human IGROV1 ovarian tumors; assay: In vivo efficacy trial, IGROV1 xenografts; set-up: species or system female ICR SCID mice
PC43-10 cells (hRFC) = details: read-out: IC50 PC43-10; cited from earlier work
FRα = FRα (Homo sapiens, UniProt P15328); details: RT16 cells, 50 nM [3H]folic acid, folic acid = 1
FRα, sequence (P15328 25-257): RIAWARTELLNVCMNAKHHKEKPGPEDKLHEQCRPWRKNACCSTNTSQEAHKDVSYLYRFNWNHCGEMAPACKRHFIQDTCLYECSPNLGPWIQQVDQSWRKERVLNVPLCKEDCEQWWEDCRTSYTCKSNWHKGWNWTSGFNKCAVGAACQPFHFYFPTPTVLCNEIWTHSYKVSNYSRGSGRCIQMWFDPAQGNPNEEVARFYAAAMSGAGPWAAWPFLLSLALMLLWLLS

FRβ = FRβ (Homo sapiens, UniProt P14207); details: D4 cells, 50 nM [3H]folic acid, folic acid = 1
FRβ, sequence (P14207 17-255): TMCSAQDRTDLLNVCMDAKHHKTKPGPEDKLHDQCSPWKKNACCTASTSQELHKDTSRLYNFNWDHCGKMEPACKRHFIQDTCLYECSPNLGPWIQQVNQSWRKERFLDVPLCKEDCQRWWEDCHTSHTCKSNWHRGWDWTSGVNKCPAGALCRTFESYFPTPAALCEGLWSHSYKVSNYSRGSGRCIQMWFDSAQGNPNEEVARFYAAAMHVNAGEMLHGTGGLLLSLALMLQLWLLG

hPCFT [3] = target: T1, hPCFT; assay: Electrophysiology, Xenopus oocytes injected with hPCFT cRNA; assay type: cell-based; details: 5 µM, pH 5.5, clamped at -90 mV
hPCFT [4] = target: T1, hPCFT; details: Lineweaver-Burke plots, ref 14 (Wang et al.), cited from earlier work

Which “inhibition of hPCFT-mediated [3H]MTX transport” value (hPCFT [1]) does the source give for Nc1nc2[nH]cc(CCc3ccc(C(=O)N[C@@H](CCC(=O)O)C(=O)O)cc3)c2c(=O)[nH]1 [PMX, N-{4-[2-(2-amino-3,4-dihydro-4-oxo-7H-pyrrolo[2,3-d]pyrimidin-5-yl)ethyl]benzoyl}-L-glutamic acid] here?
Its value is “potent and essentially equivalent inhibitors”.

What about the “protection from growth inhibition by nucleosides/AICA” value (R2/hPCFT4 cells) of the same compound?
The value was “completely reversed by adenosine combined with thymidine”.

For Nc1nc2[nH]c(CCCCc3ccc(C(=O)N[C@@H](CCC(=O)O)C(=O)O)s3)cc2c(=O)[nH]1 [Compound 4], which gross log kill ([2]; 112.5 mg/kg/injection iv Q4dx5, folate-deficient diet) is on record?
Its gross log kill is 1.2.

What about the IC50 (PC43-10 cells (hRFC)) of the same compound?
The IC50 was over 1000 nM.

With Nc1nc2[nH]c(CCc3ccc(C(=O)N[C@@H](CCC(=O)O)C(=O)O)s3)cc2c(=O)[nH]1 [Compound 2, N-({5-[(2-amino-4-oxo-4,7-dihydro-3H-pyrrolo[2,3-d]pyrimidin-6-yl)ethyl]thiophen-2-yl}carbonyl)-L-glutamic acid] as the compound, how does the “relative binding affinity for FRα” value (FRα) read?
The value was “undetectable”.

What about the “relative binding affinity for FRβ” value (FRβ) of the same compound?
The value was “undetectable”.

Which results are given for Nc1nc2[nH]c(CCCc3ccc(C(=O)N[C@@H](CCC(=O)O)C(=O)O)s3)cc2c(=O)[nH]1 [Compound 3, N-({5-[(2-amino-4-oxo-4,7-dihydro-3H-pyrrolo[2,3-d]pyrimidin-6-yl)propyl]thiophen-2-yl}carbonyl)-L-glutamic acid]?
substrate-induced current (hPCFT [3]): induced currents; inhibition of hPCFT-mediated [3H]MTX transport (hPCFT [1]): potent and essentially equivalent inhibitors; protection from growth inhibition by nucleosides/AICA (R2/hPCFT4 cells): abolished by either adenosine or AICA alone; full recovery of body weight, time post last treatment ([2]; 25 mg/kg/inj, folate-deficient diet): 8 days; full recovery of body weight, time post last treatment ([2]; 40 mg/kg/inj, folate-deficient diet): 10 days; host recovery time ([2]; folate-deficient diet): ≤ 10 days; reversible body weight loss ([2]; standard folate replete diet): 2.7–5%

With Nc1nc2c(c(=O)[nH]1)C[C@@H](CCc1ccc(C(=O)N[C@@H](CCC(=O)O)C(=O)O)cc1)CN2 [LMTX, 5,10-dideaza-5,6,7,8-tetrahydrofolate] as the compound, how does the “protection from growth inhibition by nucleosides/AICA” value (R2/hPCFT4 cells) read?
The value was “abolished by either adenosine or AICA alone”.

With Nc1nc(N)c2nc(CNc3ccc(C(=O)N[C@@H](CCCNC(=O)c4ccccc4C(=O)O)C(=O)O)cc3)cnc2n1 [Compound 9, N^α-(4-amino-4-deoxypteroyl)-N^δ-hemiphthaloyl-L-ornithine] as the compound, how does the “inhibition of hPCFT-mediated [3H]MTX transport” value (hPCFT [1]) read?
Its value is “did not inhibit”.

What does the source list for CN(Cc1cnc2nc(N)nc(N)c2n1)c1ccc(C(=O)N[C@@H](CCC(=O)O)C(=O)O)cc1 [MTX, methotrexate]?
Kt (hPCFT [4]; pH 5.5): 0.28 ± 0.02 µM; Vmax (hPCFT [4]; pH 5.5): 31.23 ± 4.31 pmol/mg/min; Kt (hPCFT [4]; pH 6.8): 4.52 ± 0.19 µM; Vmax (hPCFT [4]; pH 6.8): 13.72 ± 2.26 pmol/mg/min
